This passage reports IC50 results from the Kinase Knowledgebase extract (Sharma et al. 2016).

Assay [1] addresses EGFR (human), P00533 [Inhibition of Proliferation of EGFR(WT, k-Ras mutation) in A549 Cells].
The target of assay [2] is EGFR (human), P00533 [WT]. As to conditions: hl-7702.
In another assay the target is EGFR (human) (UniProt P00533). To be noted: a431.
In assay [3] the target is EGFR (Human), P00533 [T790M/L858R]. To be noted: h1975.
Sequence of EGFR (Human), P00533 [T790M/L858R] (P00533 whole entry T790M/L858R, looked up): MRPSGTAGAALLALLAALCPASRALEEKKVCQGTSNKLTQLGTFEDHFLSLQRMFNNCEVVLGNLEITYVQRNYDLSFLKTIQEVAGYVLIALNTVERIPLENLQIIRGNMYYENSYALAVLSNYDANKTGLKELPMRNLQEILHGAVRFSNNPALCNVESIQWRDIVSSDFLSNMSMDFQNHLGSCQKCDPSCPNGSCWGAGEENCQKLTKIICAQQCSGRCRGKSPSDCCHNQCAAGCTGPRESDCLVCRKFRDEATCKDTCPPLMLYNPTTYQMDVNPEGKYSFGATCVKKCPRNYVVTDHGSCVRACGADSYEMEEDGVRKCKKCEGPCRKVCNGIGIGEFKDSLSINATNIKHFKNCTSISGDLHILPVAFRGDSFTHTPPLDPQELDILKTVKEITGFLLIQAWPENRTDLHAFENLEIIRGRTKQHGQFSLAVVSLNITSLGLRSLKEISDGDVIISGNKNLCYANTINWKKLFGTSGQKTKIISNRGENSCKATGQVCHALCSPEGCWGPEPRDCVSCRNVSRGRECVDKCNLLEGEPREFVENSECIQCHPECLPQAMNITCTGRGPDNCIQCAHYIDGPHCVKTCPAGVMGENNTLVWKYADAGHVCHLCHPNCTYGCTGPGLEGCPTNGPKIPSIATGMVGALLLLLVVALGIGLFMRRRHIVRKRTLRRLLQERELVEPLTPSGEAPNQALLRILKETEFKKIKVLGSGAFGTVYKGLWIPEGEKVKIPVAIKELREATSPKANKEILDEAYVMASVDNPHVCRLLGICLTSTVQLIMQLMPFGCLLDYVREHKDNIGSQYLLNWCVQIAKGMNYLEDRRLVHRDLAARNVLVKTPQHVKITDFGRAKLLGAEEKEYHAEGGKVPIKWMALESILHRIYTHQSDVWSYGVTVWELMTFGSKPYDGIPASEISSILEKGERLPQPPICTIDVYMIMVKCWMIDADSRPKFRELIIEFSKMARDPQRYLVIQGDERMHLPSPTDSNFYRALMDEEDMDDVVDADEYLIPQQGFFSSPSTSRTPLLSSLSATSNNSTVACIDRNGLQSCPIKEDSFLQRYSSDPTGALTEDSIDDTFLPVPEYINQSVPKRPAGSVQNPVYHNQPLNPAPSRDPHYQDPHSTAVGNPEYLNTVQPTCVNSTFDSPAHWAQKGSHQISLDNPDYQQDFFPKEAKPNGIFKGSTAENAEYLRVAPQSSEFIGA

Sequence of EGFR (human), P00533 [WT] (P00533 whole entry, looked up): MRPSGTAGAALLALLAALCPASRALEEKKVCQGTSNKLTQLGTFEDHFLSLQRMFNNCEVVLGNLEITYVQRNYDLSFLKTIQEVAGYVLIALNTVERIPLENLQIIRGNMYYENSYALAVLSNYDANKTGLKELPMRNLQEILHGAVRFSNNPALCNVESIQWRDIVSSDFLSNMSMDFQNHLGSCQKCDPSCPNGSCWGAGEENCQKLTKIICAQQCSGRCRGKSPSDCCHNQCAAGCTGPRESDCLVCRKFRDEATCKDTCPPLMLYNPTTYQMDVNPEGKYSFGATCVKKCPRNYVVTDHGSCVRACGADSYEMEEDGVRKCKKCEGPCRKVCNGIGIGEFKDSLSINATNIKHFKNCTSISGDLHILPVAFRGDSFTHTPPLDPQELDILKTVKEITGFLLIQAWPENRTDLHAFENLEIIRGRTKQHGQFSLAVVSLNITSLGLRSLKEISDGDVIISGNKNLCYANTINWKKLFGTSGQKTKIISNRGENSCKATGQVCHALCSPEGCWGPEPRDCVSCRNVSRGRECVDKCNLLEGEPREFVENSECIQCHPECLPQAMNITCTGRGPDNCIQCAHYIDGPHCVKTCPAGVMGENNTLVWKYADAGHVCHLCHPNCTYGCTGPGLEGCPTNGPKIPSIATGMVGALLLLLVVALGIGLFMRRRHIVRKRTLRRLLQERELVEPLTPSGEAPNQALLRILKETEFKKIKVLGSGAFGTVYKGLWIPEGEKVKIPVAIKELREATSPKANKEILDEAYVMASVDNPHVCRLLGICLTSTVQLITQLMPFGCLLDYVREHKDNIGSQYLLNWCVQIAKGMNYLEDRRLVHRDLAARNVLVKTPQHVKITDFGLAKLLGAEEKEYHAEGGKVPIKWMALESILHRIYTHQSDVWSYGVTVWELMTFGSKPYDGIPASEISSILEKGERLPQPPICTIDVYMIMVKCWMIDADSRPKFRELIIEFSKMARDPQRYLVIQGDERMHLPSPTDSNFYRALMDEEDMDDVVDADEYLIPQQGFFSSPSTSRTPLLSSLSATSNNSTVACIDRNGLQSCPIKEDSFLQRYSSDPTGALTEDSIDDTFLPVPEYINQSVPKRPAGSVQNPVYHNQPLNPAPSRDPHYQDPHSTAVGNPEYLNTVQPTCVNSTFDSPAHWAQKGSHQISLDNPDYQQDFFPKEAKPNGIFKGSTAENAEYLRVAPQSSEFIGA
Sequence of EGFR (human) (P00533 whole entry, looked up): as above
Sequence of EGFR (human), P00533 [Inhibition of Proliferation of EGFR(WT, k-Ras mutation) in A549 Cells] (P00533 whole entry, looked up, change not shown): as the sequence (P00533 whole entry, looked up) above

In general, IC50 refers to the point on the concentration scale where inhibition reaches its midpoint. Read a low IC50 as greater potency in that assay. Consider `C=CC(=O)Nc1cccc(N2C(=O)N(C)Cc3cnc(Nc4ccc(N(C)C)cc4OC)nc32)c1`, for which the IC50 in assay [1] was greater than 20 µM; in assay [2], greater than 10 µM.

Regarding `C=CC(=O)Nc1cccc(N2C(=O)N(C)Cc3cnc(Nc4ccc(N5CCN(C)CC5)cc4F)nc32)c1`, the IC50 against EGFR (human) was greater than 10 µM. `C=CC(=O)Nc1cccc(N2C(=O)N(C)Cc3cnc(Nc4ccc(N5CCC(N(C)C)CC5)cc4OC)nc32)c1`: the half-maximal inhibitory concentration (IC50) in assay [2] is greater than 10 µM. On the same count and under the same terms, the figure for `C=CC(=O)Nc1cccc(N2C(=O)N(C)Cc3cnc(Nc4ccc(N5CCN(C)CC5)cc4OC(C)C)nc32)c1` is greater than 10 µM; for `C=CC(=O)Nc1cccc(N2C(=O)N(C)Cc3cnc(Nc4ccc(N5CCCCC5)cc4OC)nc32)c1` it is greater than 10 µM.

The compound `C=CC(=O)Nc1cccc(N2C(=O)N(C)Cc3cnc(Nc4ccc(N5CCN(C)CC5)cc4OC)nc32)c1` gave an IC50 in assay [2] greater than 10 µM.

The compound `C=CC(=O)Nc1cccc(N2C(=O)N(c3ccc(Oc4ccccc4)cc3)Cc3cnc(Nc4ccc(N5CCN(C)CC5)cc4OC)nc32)c1` returned an IC50 in assay [2] greater than 10 µM. On to `C=CC(=O)Nc1cccc(N2C(=O)N(C)Cc3cnc(Nc4ccc(N5CCOCC5)cc4OC)nc32)c1`, for which the IC50 (against EGFR (human); in assay [2]) was greater than 10 µM each time. Take `C=CC(=O)Nc1cccc(N2C(=O)N(C)Cc3cnc(Nc4ccc(N5CCN(C)CC5)cc4C)nc32)c1`: the IC50 in assay [2] was greater than 10 µM.

Regarding `C=CC(=O)Nc1cccc(N2C(=O)N(C(C)C)Cc3cnc(Nc4ccc(N5CCN(C)CC5)cc4OC)nc32)c1`, the IC50 in assay [2] is greater than 10 µM. In the case of `C=CC(=O)Nc1cccc(N2C(=O)N(C)Cc3cnc(Nc4ccc(N5CCCN(C)CC5)cc4OC)nc32)c1`, the figures for the half-maximal inhibitory concentration (IC50) in assay [1] and in assay [2] were greater than 20 µM and greater than 10 µM, respectively.

For `CCC(=O)Nc1cccc(N2C(=O)N(C)Cc3cnc(Nc4ccc(N5CCN(C)CC5)cc4OC)nc32)c1`, the concentration for half-maximal inhibition (IC50) in assay [3] was greater than 20 µM; at EGFR (human) it was greater than 10 µM; in assay [1], greater than 30 µM; in assay [2], greater than 10 µM. With `C=CC(=O)Nc1cccc(N2C(=O)N(C)Cc3cnc(NC)nc32)c1`, the IC50 was greater than 10 µM against EGFR (human), greater than 20 µM in assay [1] and greater than 10 µM in assay [2]. The compound `C=CC(=O)Nc1cccc(N2C(=O)N(C)Cc3cnc(Nc4ccc(N5CCN(C)CC5)cc4OCC)nc32)c1` came in with an IC50 in assay [2] greater than 10 µM. Consider `C=CC(=O)Nc1cccc(N2C(=O)N(C)Cc3cnc(Nc4ccccc4)nc32)c1`, for which the IC50 in assay [2] is greater than 10 µM.

As to `COc1cc(N2CCN(C)CC2)ccc1Nc1ncc2c(n1)N(c1cccc(N)c1)C(=O)N(C)C2`, the results for the IC50 (in assay [3]; against EGFR (human); in assay [2]) were greater than 20 µM, greater than 10 µM and greater than 10 µM, respectively.
